# Measurements: patent publication US12559750B2, “Methods and compositions for treatment of polycystic kidney disease” (Regulus Therapeutics Inc., priority 2021, dated 2026)
# How the values were obtained:
# AMPA glutamate receptor = experiment: Off-target panel, ligand binding (RGLS4326)
# Description: To identify potential candidates for off-target pharmacology, a panel of 174 targets including G-protein coupled receptors, transporters, ion channels, nuclear receptors, and cytokine receptors was evaluated in vitro for possible interactions with RGLS4326. […] AMPA receptors are ion channels on excitatory synapses in the CNS that mediate fast excitatory neurotransmission and, therefore, are key components of all neuronal networks. Such an interaction with the AMPA receptor could explain the CNS-mediated findings observed at high doses of RGLS4326 in nonclinical toxicology models.
# Swiss:Rjorl male mice = experiment: ICV maximum tolerated dose study for RGLS4326, Study 2; format: in vivo, mouse
# Description: A second MTD study for RGL4326 by ICV was conducted to assess dose selection for evaluating the compound in disease models (Table 11). In this study, a different mouse strain was evaluated (Swiss:Rjorl male mice, age 5 weeks, sourced from Janvier). Mice were placed under isoflurane anaesthesia (5% for induction and 2% for maintenance, under 100% O2) and given 5 mg/kg s.c. carprofen (Rimadyl®). They were then placed in a stereotaxic frame. A midline sagittal incision was made in the scalp and a hole was drilled in the skull over the left lateral ventricle. A stainless-steel cannula (external diameter 0.51 mm) was placed stereotaxically into the left lateral ventricle at the following coordinates: +0.5 posterior to Bregma, L±0.7 mm, V=−2.7 mm. After a 2-minute delay to allow the brain tissue to slide over the cannula, 4 μL of a solution containing 0.625 mg/mL of RG4326 was slowly infused over 2 minutes. After infusion, the cannula was left in place for a further 5 minutes to prevent backflow of the solution along the cannula track. Mice were given 5 mg/kg s.c. carprofen (Rimadyl®) at 24 and 48 hours, after surgery. Mice were monitored during 3-7 days after surgery (starting 24 h after ICV administration) and their body weight was taken daily to check their health status. For mice monitored over 7 days, body weight was taken on Day 1 and on Day 7 after surgery to check their health status.
# In Study 1, 6 mice were injected with 4 μL of a solution at 0.625 mg/mL (2.5 μg total per ICV; Table 10). At the end of anesthesia, the mice remained lying on one side. They were quiet with some periods of scratching during the first hours after surgery. […] In Study 2, four mice were injected with 4 different doses of RGLS4326 (0.75, 1.0, 1.25 and 1.875 mg/mL, volume of 4 μL). One mouse that received the highest dose (1.875 mg/mL, i.e., 7.5 μg/mouse) was found dead around 24 hours after ICV injection. All other mice were in good health, until the end of the pilot study (7 days after administration).
# miR-17 = settings: mIMCD3, mouse, Normal; value reported by Lee et al., Nat. Commun., 2019; read-out: miR-17 PD-Sig (EC50); cited from earlier work
# C57Bl/6J male mice = experiment: ICV maximum tolerated dose study, Study 1; format: in vivo, mouse; settings: 7-day
# Description: Compounds (RG-NG-1017, RGLS4326, RG-NG-1001) were evaluated in a pilot maximum tolerated dose (MTD) study (discussed below). RG-NG-1017, RGLS4326 and RG-NG-1001 were initially evaluated at 4 dose-levels each. RG-NG-1017 was included for evaluation as a non-AMPA-R binding compound, as compared to RGLS4326 and RG-NG-1001, which bind AMPA-R. C57Bl/6J male mice (Jackson Laboratories), age 6-7 weeks, were used in this study. Mice were assigned randomly to treatment groups, and the study was blinded. Animals were allowed to acclimate for no less than 5 days and housed on a 12 hr light/dark cycle (lights on 7:00 AM). No more than 4 mice were house in each cage in a ventilated cage rack system. The diet consisted of standard rodent chow and water ad libitum.
# The following parameters were used for this study: • 1. Route(s) of administration: intracerebroventricular (ICV) dosing of RG-NG-1017, RG-NG-1001, RGLS4326 • 2. Dose Volume(s): 4 μL • 3. Formulation(s): vehicle, Ca^2+ and Mg^2+ free dPBS • 4. Dose Frequency: Once • 5. Study duration: 8 Days • 6. Number of Groups: 3 • 7. Number of animals per group: (2-4 each group) • 8. Total number of animals: […]
# For the ICV administration, mice were anesthetized and positioned for injections. The skin over the skull was incised, and a small hole was made in the skull above the target using a microdrill. The stereotactic coordinates were anteroposterior (AP), −0.4 mm; mediolateral (ML), +/−1.0-1.5 mm; dorsoventral (DV), −3.0 mm from the bregma for injection into both the right and left lateral cerebral ventricles (Hironaka et al, 2015). Animals were injected unilaterally with 4 μl into the right lateral cerebral ventricle. Compounds were injected over 1-2 min, and the needle was left in place for 0.5-1 min prior to withdrawal. The incision was closed with sutures, wound clips, or VetBond.
# Following ICV treatment (Day 0), animals were monitored for 7 days in which daily health checks, body weight, and mortality was recorded. On Day 7, brain and kidney were collected and fixed (10% formalin) and stored pending histology.
sequence,measurement,setting,value
"ASGSCMAFCFUFUMUSGS [RGLS4326, reference compound]",50% inhibitory concentration (IC50) based on ligand binding,AMPA glutamate receptor,14.2 µg/mL
same,IC50,AMPA glutamate receptor; read-out: 50% inhibitory concentration (IC50) based on ligand binding,4.6 µM
same,"toxic effects at 24, 48 or 72 hours","Swiss:Rjorl male mice; ICV 4 μL of 0.625 mg/mL (2.5 μg total), 6 mice",No toxic effects were observed
same,"Dead/Total Mice, Study 2",Swiss:Rjorl male mice; single ICV 2.5 μg,0/6
same,"Dead/Total Mice, Study 2","Swiss:Rjorl male mice; single ICV 3 μg, 7-day",0/4
same,"Dead/Total Mice, Study 2","Swiss:Rjorl male mice; single ICV 4 μg, 7-day",0/4
same,"Dead/Total Mice, Study 2","Swiss:Rjorl male mice; single ICV 5 μg, 7-day",0/4
same,"Dead/Total Mice, Study 2","Swiss:Rjorl male mice; single ICV 7.5 μg, 7-day",1/4
same,MTD,"Swiss:Rjorl male mice; single ICV, Swiss:Rjorl mouse strain, predicted from Study 2",~4 µg
same,EC50,miR-17,0.0772 µM
same,Mortality/total number of mice,C57Bl/6J male mice; single ICV 2.5 μg,0/3
same,Mortality/total number of mice,C57Bl/6J male mice; single ICV 5 μg,2/4
same,Mortality/total number of mice,C57Bl/6J male mice; single ICV 10 μg,3/4
same,Mortality/total number of mice,C57Bl/6J male mice; single ICV 25 μg,3/3
same,Mortality/total number of mice,C57Bl/6J male mice; single ICV 50 μg,3/3
same,Mortality/total number of mice,C57Bl/6J male mice; single ICV 100 μg,2/2
same,Mortality/total number of mice,C57Bl/6J male mice; single ICV 300 μg,2/2
same,Mortality/total number of mice,C57Bl/6J male mice; single ICV 600 μg,2/2
